Tested on: snap bean seedling diseases (Pythium spp., Rhizoctonia solani, Macrophomina phaseolina, and Fusarium spp.)
Assay: Spring-planted 2013 snap bean field test
Settings: in vivo

## O.O.O=C([O-])c1ccccc1O.O=C([O-])c1ccccc1O.[Ca+2] [calcium salicylate, calcium salicylate dihyrate]
  Overall snap bean yield: highest
  Seedling emergence 15 days after planting (May 8): greatest
  healthy plant stands: highest
